Experimental data: patent publication US6365582B1, “S-substitute 11β-benzaldoxime-estra-4, 9-diene-carbonic acid thiolesters, method for the production thereof and pharmaceutical preparations containing these compounds” (Jenapharm GmbH & Co. KG, priority 1998, dated 2002)

Key:
[1] = target: T1, progesterone receptor (Oryctolagus cuniculus, UniProt P06186); assay: Receptor binding affinity, progesterone receptor (competitive binding, uterus cytosol); settings: Progesterone = 100%; uterus cytosol of estradiol-primed rabbit; tracer 3H-ORG 2058
T1 construct: receptors in the cytosol of animal target organs; from tissue; host or cells: uterus cytosol of the estradiol-primed rabbit
T1 sequence (P06186 1-930): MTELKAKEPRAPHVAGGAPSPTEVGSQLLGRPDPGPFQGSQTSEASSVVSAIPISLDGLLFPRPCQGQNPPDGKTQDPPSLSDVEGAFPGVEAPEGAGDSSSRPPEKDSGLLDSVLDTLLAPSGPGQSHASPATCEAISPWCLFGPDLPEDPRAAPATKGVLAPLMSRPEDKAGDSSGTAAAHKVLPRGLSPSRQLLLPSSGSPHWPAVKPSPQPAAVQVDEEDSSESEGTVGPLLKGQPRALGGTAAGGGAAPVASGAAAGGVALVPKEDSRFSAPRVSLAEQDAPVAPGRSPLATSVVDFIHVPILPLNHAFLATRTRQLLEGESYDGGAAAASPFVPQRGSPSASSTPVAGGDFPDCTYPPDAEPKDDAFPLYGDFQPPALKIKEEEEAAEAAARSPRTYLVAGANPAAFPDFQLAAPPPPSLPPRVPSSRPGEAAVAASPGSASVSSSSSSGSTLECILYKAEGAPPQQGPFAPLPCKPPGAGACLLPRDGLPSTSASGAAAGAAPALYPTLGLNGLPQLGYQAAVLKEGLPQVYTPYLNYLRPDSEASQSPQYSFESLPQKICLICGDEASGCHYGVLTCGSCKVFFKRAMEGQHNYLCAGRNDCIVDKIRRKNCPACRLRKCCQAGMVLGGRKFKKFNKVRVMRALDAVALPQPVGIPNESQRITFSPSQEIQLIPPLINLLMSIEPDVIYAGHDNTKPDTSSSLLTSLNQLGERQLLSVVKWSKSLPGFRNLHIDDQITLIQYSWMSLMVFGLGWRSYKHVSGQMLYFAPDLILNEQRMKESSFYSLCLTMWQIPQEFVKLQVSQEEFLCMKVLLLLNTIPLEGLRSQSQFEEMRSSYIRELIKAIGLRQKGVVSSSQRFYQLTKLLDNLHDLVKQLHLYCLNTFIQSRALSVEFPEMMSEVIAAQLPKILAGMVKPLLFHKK
Experimental: (§1) Measurement of the receptor binding affinity
(§2) The receptor binding affinity was determined by competitive binding of a specifically binding ^3H-labeled hormone (tracer) and the compound to be tested to receptors in the cytosol of animal target organs. Receptor saturation and reaction equilibrium were aimed at here. The following incubation conditions were chosen:
Progesterone receptor Uterus cytosol of the estradiol-primed rabbit, stored at −30° C.
Buffer for homogenization and incubation: TED buffer 20 mM tris/HCl, pH [sic]=7.4; 1 mM ethylenediamine tetracetate, 2 mM dithiothreitol) containing 250 mM sucrose.
Reference substance: progesterone.
(§3) After an incubation of receptor fraction, tracer and competitor for 18 h at 0-4° C., the bound and free steroid were separated by mixing in active carbon/dextran (1%/0.1%), centrifuging off and measuring the receptor-bound ^3H activity in the supernatant.

[2] = target: T2, glucocorticoid receptor (Rattus norvegicus, UniProt P06536); assay: Receptor binding affinity, glucocorticoid receptor (competitive binding, thymus cytosol); settings: Dexamethasone = 100%; thymus cytosol of adrenalectomized rat; tracer 3H-dexamethasone
T2 construct: receptors in the cytosol of animal target organs; from tissue; host or cells: thymus cytosol of the adrenalectomized rat
T2 sequence (P06536 1-795): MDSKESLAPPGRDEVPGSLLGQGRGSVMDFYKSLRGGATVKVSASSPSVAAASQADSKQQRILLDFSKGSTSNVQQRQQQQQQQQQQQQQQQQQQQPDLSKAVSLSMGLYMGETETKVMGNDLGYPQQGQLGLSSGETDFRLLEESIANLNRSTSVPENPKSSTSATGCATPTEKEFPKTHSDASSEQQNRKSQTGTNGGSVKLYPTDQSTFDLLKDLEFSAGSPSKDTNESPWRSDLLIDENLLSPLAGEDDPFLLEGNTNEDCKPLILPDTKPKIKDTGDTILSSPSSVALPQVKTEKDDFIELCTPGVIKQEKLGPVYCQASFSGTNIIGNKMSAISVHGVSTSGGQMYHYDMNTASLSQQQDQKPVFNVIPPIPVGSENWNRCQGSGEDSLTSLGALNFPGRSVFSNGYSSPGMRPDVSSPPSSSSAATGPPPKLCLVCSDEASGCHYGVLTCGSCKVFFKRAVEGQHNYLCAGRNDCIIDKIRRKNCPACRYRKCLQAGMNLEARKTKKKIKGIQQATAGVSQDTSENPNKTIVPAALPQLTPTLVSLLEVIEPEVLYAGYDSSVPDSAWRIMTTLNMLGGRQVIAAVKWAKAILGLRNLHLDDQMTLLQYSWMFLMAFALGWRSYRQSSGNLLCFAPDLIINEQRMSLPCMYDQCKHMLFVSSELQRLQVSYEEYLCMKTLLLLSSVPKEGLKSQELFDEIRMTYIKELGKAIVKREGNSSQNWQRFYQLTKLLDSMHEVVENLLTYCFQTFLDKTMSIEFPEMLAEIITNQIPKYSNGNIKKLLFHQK
Experimental: as §1, §2
Glucocorticoid receptor: Thymus cytosol of the adrenalectomized rat. Thymi stored at −30° C.
Tracer: ^3H-dexamethasone, 20 nM.
Reference substance: dexamethasone.
as §3

[3] = test system: early pregnancy in the rat; assay: Inhibition of early pregnancy in the rat (early abortive action); format: in vivo; settings: s.c., day 5-7 of pregnancy
Experimental: Inhibition of early pregnancy in the rat Female rats weighing 180-200 g were mated in the proestrus stage. On detection of sperm in the vaginal region on the next day, this is set as day 1 (d=1) of the pregnancy. The rats are treated with test substance or vehicle using 0.2 ml of benzoyl benzoate/castor oil (1+4 v/v) subcutaneously from day 5 to day 7 (d5-d7); autopsy is carried oust painlessly on day d9. The uterus horns was [sic] dissected and examined for intact or damaged nidation sites.

[4] = test system: pregnancy of guinea pigs; assay: Inhibition of late pregnancy in pregnant guinea pigs (abortive action); format: in vivo; settings: guinea pig; for Complete inhibition of pregnancy % / Complete inhibition of pregnancy N#/N (non-gravid/mated females): s.c., day 43-44 of pregnancy
Experimental: Inhibition of late pregnancy in pregnant guinea pigs
Pregnant guinea pigs are treated with test substances from day 43-44. Experimental animals were […] with the test substance in oily solution (0.2-2.0 ml of benzoyl benzoate/castor oil 1+4 v/v) 1× daily on day 43 and 44. Control animals were treated with vehicle. The pregnancy of the animals was monitored until day 50, in particular, the expulsion of fetuses and placentas was observed and recorded.

[5] = test system: guinea pig in cycle; assay: Antiluteolysis test/ovulation inhibition test in the guinea pig in cycle; format: in vivo; settings: guinea pig
Experimental: Antiluteolysis test/ovulation inhibition test in the guinea pig in cycle: This test is based on the fact that progesterone at the end of the cycle stimulates uterine prostaglandin secretion. In the guinea pig, the inhibition of this function leads to a persistence of the corpora lutea (antiluteolysis). […] This test thus allows the therapy-relevant typing of progesterone antagonists as ? pure” or ? agonistic” substances. Guinea pigs are treated with the test substance on day 10 to day 17 of the cycle. The progesterone concentrations in the serum are determined on day 10 before substance treatment and on the following days until autopsy ([…]., Beier, […]., Crundel, M. et al. in Current Concepts in Fertility Regulation and Reproduction, (eds). Puri, C. P. and Van Look, P. F. H. (1994) 303-328).

Structure (SMILES)	Relative molar binding affinity RBA (%) to the progesterone receptor [1]	Relative molar binding affinity RBA (%) to the glucocorticoid receptor [2]	Complete inhibition of pregnancy % ([3]; 3 mg/(animal × day))	Complete inhibition of pregnancy N#/N (non-gravid/mated females) ([3]; 3 mg/(animal × day))	Complete inhibition of pregnancy % ([3]; 1 mg/(animal × day))	Complete inhibition of pregnancy N#/N (non-gravid/mated females) ([3]; 1 mg/(animal × day))	further results
COCC1(OC)CCC2C3CCC4=CC(=O)CCC4=C3C(c3ccc(C=NOC(=O)SC)cc3)CC21C (stereo not drawn) [Example 1, 4-[17β-Methoxy-17α-(methoxymethyl)-3-oxoestra-4,9-dien-11β-yl]benzaldehyde 1-(E)-[O-(methylthio)carbonyl]oxime]	159%	49%	–	–	–	–	–
COC[C@@]1(O)CC[C@H]2[C@@H]3CCC4=CC(=O)CCC4=C3[C@@H](c3ccc(/C=N/OC(=O)SC)cc3)C[C@@]21C [Example 2, 4-[17β-Hydroxy-17α-(methoxymethyl)-3-oxoestra-4,9-dien-11β-yl]benzaldehyde 1-(E)-[O-(methylthio)carbonyl]oxime]	185%	52%	0%	0/4	–	–	–
CCSC(=O)O/N=C/c1ccc([C@H]2C[C@@]3(C)[C@@H](CC[C@]3(COC)OC)[C@@H]3CCC4=CC(=O)CCC4=C32)cc1 [Example 3, 4-[17β-Methoxy-17α-(methoxymethyl)-3-oxoestra-4,9-dien-11β-yl]benzaldehyde 1-(E)-[O-(ethylthio)carbonyl]oxime]	164%	42%	0%	0/5	0%	0/5	Complete inhibition of pregnancy % ([4]; 10 mg/animal/day): 0%; Complete inhibition of pregnancy N#/N (non-gravid/mated females) ([4]; 10 mg/animal/day): 0/7; Complete inhibition of pregnancy % ([4]; 30 mg/animal/day): 0%; Complete inhibition of pregnancy N#/N (non-gravid/mated females) ([4]; 30 mg/animal/day): 0/7; Complete inhibition of pregnancy % ([4]; 100 mg/animal/day): 0%; Complete inhibition of pregnancy N#/N (non-gravid/mated females) ([4]; 100 mg/animal/day): 0/7; Interference with the pregnancy of guinea pigs (in words) ([4]; very high doses): incapable even at very high doses of interfering with the pregnancy of guinea pigs; Complete inhibition of pregnancy % ([3]; 10 mg/(animal × day)): 20%; Complete inhibition of pregnancy N#/N (non-gravid/mated females) ([3]; 10 mg/(animal × day)): 1/5
CCSC(=O)ON=Cc1ccc(C2CC3(C)C(CCC3(O)COC)C3CCC4=CC(=O)CCC4=C23)cc1 (stereo not drawn) [Example 4, 4-[17β-Hydroxy-17α-(methoxymethyl)-3-oxoestra-4,9-dien-11β-yl]benzaldehyde 1-(E)-[O-(ethylthio)carbonyl]oxime]	44%	53%	–	–	–	–	–
CCSC(=O)ON=Cc1ccc(C2CC3(C)C(CCC3(O)CN=[N+]=[N-])C3CCC4=CC(=O)CCC4=C23)cc1 (stereo not drawn) [Example 5, 4-[17β-Hydroxy-17α-(azidomethyl)-3-oxoestra-4,9-dien-11β-yl]benzaldehyde-1-(E)-[O-(ethylthio)carbonyl]oxime]	77%	20%	–	–	–	–	–
CCSC(=O)ON=Cc1ccc(C2CC3(C)C(CCC3(O)CCl)C3CCC4=CC(=O)CCC4=C23)cc1 (stereo not drawn) [Example 6, 4-[17β-Hydroxy-17α-(chloromethyl)-3-oxoestra-4,9-dien-11β-yl]benzaldehyde 1-(E)-[O-(ethylthio)carbonyl]oxime]	64%	22%	–	–	–	–	–
CCSC(=O)O/N=C/c1ccc([C@H]2C[C@@]3(C)[C@@H](CC[C@@]3(O)CC#N)[C@@H]3CCC4=CC(=O)CCC4=C32)cc1 [Example 7]	42%	2%	0%	0/5	0%	0/5	–
CCSC(=O)OC[C@]1(O)CC[C@H]2[C@@H]3CCC4=CC(=O)CCC4=C3[C@@H](c3ccc(/C=N/OC(=O)SCC)cc3)C[C@@]21C [Example 8, 4-{17β-Hydroxy-17α-[(ethylthiocarbonyloxy)methyl]3-oxoestra-4,9-dien-11β-yl]benzaldehyde 1-(E)-[O-(ethylthio)carbonyl]oxime]	74%	32%	–	–	–	–	–
COC[C@]1(OC)CC[C@H]2[C@@H]3CCC4=CC(=O)CCC4=C3[C@@H](c3ccc(/C=N/O)cc3)C[C@@]21C [J 867, 11β-[4-(hydroximinomethyl)phenyl]-17β-methoxy-17α-methoxymethyl-estra-4,9-dien-3-one, reference compound]	302%	77%	100%	5/5	100%	5/5	Complete inhibition of pregnancy % ([3]; 0.3 mg/(animal × day)): 0%; Complete inhibition of pregnancy N#/N (non-gravid/mated females) ([3]; 0.3 mg/(animal × day)): 0/5
CC(=O)[C@H]1CC[C@H]2[C@@H]3CCC4=CC(=O)CC[C@]4(C)[C@H]3CC[C@]12C [progesterone]	–	–	–	–	–	–	Prostaglandin / PGFM levels in the blood (in words) [5]: raised prostaglandin F metabolite levels
